Entries after “also recorded” stand apart in the source; their conditions may differ. Like-named read-outs stand apart in the source and are kept apart here.
Key:
LC3-II protein = LC3-II protein level in SH-SY5Y cells with or without bafilomycin A1; type: cell-based, human; details: bafilomycin A1 10 nM alone
Protocol: The observed increase in LC3-positive autophagosomes could result, in principle, from either an increased flux through the autophagy pathway or decreased autophagosome degradation (Pankiv, S., et al. J Biol Chem 282, 24131-24145 (2007); Kamada, Y., et al. J Cell Biol 150, 1507-1513 (2000)). […] In order to ascertain an increase in autophagic flux, cells were co-treated with LNK-754-TS and an inhibitor of autophagosome-lysosome fusion, bafilomycin A1 (10 nM). Bafilomycin treatment alone caused a 100% increase in the amount of LC3-II, consistent with the fact that it inhibits autophagosome degradation (FIG. 8c).

human α-synuclein = assay: Masliah D-line α-synuclein transgenic mouse, α-synuclein immunoreactivity and ELISA; type: in vivo; details: α-synuclein transgenic mice vs vehicle
Protocol: Animals and treatments: Male and female human WT alpha-synuclein over-expressing transgenic mice^32 at 6 months of age were given vehicle (10% beta-cyclodextrin) or LNK-754-TS (0.09, 0.9 and 9 mg/kg) per oral gavage twice daily for 3 months or animals at 7 months of age were given vehicle (2.5% beta-cyclodextrin) or LNK-754-TS (2 mg/kg) once every three days for 3 months. Male and female TAU transgenic mice expressing TAU441 bearing the missense mutations V337M^50 and R406W under the control of the murine Thy-1 promoter with a CB6xC57BL/6 background were 5 months old at the time when the oral treatment for three months with LNK-754-TS (0.9 and 0.09 mg/kg) as well as vehicle (2.5% beta-cyclodextrin) was started. Female human APP/PS1 (APP (London V7171)/PS1(A246E)) over-expressing transgenic mice were treated with LNK-754-TS (0.9 mg/kg) or vehicle (2.5% beta-cyclodextrin) for 2 months or 12 days.
Immunohistochemistry and quantification of stained cells: For evaluation of α-synuclein immunoreactivity (IR), 5 sagittal cryo-cut sections (10 μm slice thickness) from five different layers were used for counting of IR cells in the cortex and hippocampus. Brain sections were stained with a monoclonal human α-synuclein specific antibody (Alexis®; Cat#804-258-L001; dilution 1:5), followed by a secondary Ab Cy 2-Goat Anti-Rat (Jackson ImmunoResearch®; dilution 1:200). IR positive cells were quantified using specialized image analysis software (Image Pro Plus, version 4.5.1.29). For Tau transgenic animals, 5 μm thick coronal paraffin sections were stained with the monoclonal mouse anti-human TAU-antibodies (AT180—1:100; HT7—1:500) and visualized using an anti-mouse Cy3 secondary antibody (1:500, Jackson Laboratories®). Images were evaluated with ImageProPlus (version 6.2) image analysis software. For APP/PS1 transgenic animals sagittal hemisections (40 μm) were collected and processed for Aβ immunohistochemistry using an 6E10 antibody, Thioflavin-S staining. Primary antibodies were detected by the ABC method.
ELISA quantification of α-Synuclein in the α-Synuclein transgenic animals: Brain homogenate was centrifuged and the supernatant saved as fraction F1. The pellet was washed then resuspended and saved as fraction F2. Plates (Nunc, 464718) were coated with SYN-1 (1:1000, BD Transduction Labs, 610787). Monomeric recombinant α-synuclein was included as an internal standard. Biotinylated antibody FL-140 (1:300, Santa Cruz Biotechnology, sc-10717-B) and ExtrAvidin-Alkaline phosphatase (3:5000, Sigma, E2636) was added followed by pNPP substrate solution (Sigma, N1891). Raw absorbance (405 nm) was then normalized to the total protein concentration of each sample. In the APP/PS1 transgenic animal, brains were homogenized and the supernatant, Faction 1, was separated from the pellet. The pellets were further processed with addition of NP40 and Triton X-100. The supernatant was separated from the pellet as the insoluble membrane, Fraction 2, and was dissolved in 8M Guanidine. To quantify the amount of human Aβ-40 and Aβ-42, ELISA kits were used (The Genetics Company, Zurich, Switzerland).
In FIG. 2 is shown efficacy data for LNK-754-TS in the Masliah D-line transgenic α-synuclein mouse (an accepted model of synucleinopathies). Two trials are shown, the first (FIG. 2A) at higher doses of LNK-754-TS: 45 mg/kg and 9 mg/kg. […] The second trial (FIG. 2B) explores the low dose range for efficacy in the α-synuclein models. Here, doses start as low as 0.9 mg/kg, and extend through 9 mg/kg, all below the efficacious dose range in the mouse oncology model.
After dosing with LNK-754-TS for three months (twice daily at 0.09 mg/kg or 0.9 mg/kg), α-synuclein accumulation in the brain was analyzed by immunohistochemical (human specific α-synuclein immunoreactivity) and biochemical (α-synuclein ELISA) means. […]

[1] = Pharmacokinetics of Zarnestra in C57BL/6 mice, oral; type: in vivo, mouse; details: oral 5 mg/kg single dose; for MRT: read-out: MRT(0-[…])
Protocol: LLOQ: brain 4 ng/g; plasma 50 ng/ml.
The pharmacokinetic profiles of LNK-754-TS and Zarnestra® were analyzed using methods known in the art. The results are shown in FIGS. 13-14 and the tables below.

LC3 mRNA = LC3 mRNA (qPCR) in SH-SY5Y cells; type: cell-based, human; details: 100 nM, 72 hr, SH-SY5Y
Protocol: (§1) Cell culture and immunocytochemistry: SH-SY5Y cells were grown in DMEM medium supplemented with 10% FBS and 1% pen/strep at 37° C. and 5% CO2. Cells were differentiated with 10 μM retinoic acid for 48 hr, then treated with the either rapamycin (100 nM or 1 μM) or with 100 nM of either LNK-754-TS or Tipifarnib for 48-72 hr. Cells were then fixed with 4% paraformaldehyde and stained for LC3 (Novus biological, NB100-2331, dilution 1:800) followed by secondary Alexa-564 anti-Rabbit (A-11011).
(§2) Quantitative real-time PCR: Gene expression profiles were done by qPCR on series of known autophagy genes. RNA was extracted with Tri-reagent (Sigma), and cDNAs generated using iScript (Biorad). qPCR analysis was carried out in a 96 well plate using an iCycler (BioRad, Hercules, Calif.), and iQ SYBR Green Supermix (Biorad) according to the manufacturer's specifications.
Such increases in LC3 mRNA levels are associated in the literature with stimulation of macroautophagy. This supports the hypothesis that at doses as low as 1 nM in this in vitro system there is stimulation of autophagy in these cells.
(§3) Autophagy was measured in a neuroblastoma cell culture system by three distinct approaches: quantitation of autophagy-related mRNA's, immunofluorescence microscopy of autophagosomes, and biochemical detection of the microtubule-associated protein 1 light chain 3 (LC3) a key protein that is required for autophagosome formation. Differentiated human neuroblastoma cells (SH-SY5Y) were treated for 72 hr with LNK-754-TS (0.01-100 nM), Zarnestra® (also referred to herein as tipifarnib) (100 nM) or rapamycin (1 μM).

[2] = tested on: LC3-positive puncta (autophagosomes); assay: LC3 immunostaining (LC3-positive puncta) in SH-SY5Y cells; type: cell-based, human; details: 100 nM, SH-SY5Y (FIG. 8b)
Protocol: as §1, §3

[3] = tested on: autophagy-related gene transcripts; assay: mRNA of autophagy-related genes (Atg1, p62) in SH-SY5Y cells; type: cell-based, human; details: 100 nM, SH-SY5Y (FIG. 8d)
Protocol: as §2
Rapamycin is a well-characterized autophagy stimulator that acts through inhibition of mTOR, a kinase involved in nutrient signaling and regulation of cell growth and survival.

GGTase [4] = molecular target: T1, GGTase (Homo sapiens, UniProt P49354+P53609); assay: GGTase inhibitory activity, general statement; type: biochemical; details: selective FTase inhibitors
FTase = FTase (Homo sapiens, UniProt P49354+P49356); details: End et al., Cancer Research 2001; cited from earlier work
GGTase [5] = molecular target: T1, GGTase; details: at 50 micromolar; cited from earlier work

CO/C1=C\C(C)=C\[C@@H](C)[C@@H](O)[C@@H](C)C/C(C)=C/C=C/[C@H](OC)[C@@H]([C@@H](C)[C@@H](O)[C@H](C)[C@@]2(O)C[C@@H](O)[C@H](C)[C@@H](C(C)C)O2)OC1=O [Bafilomycin, bafilomycin A1, reference compound]
increase in the amount of LC3-II (LC3-II protein): 100%

Cn1cncc1[C@@](N)(c1ccc(Cl)cc1)c1ccc2c(c1)c(-c1cccc(Cl)c1)cc(=O)n2C [Zarnestra®, (R)-6-(Amino(4-chlorophenyl)(1-methyl-1H-imidazol-5-yl)methyl)-4-(3-chlorophenyl)-1-methyl-2(1H)-quinolinone]
levels of α-synuclein in the hippocampus (human α-synuclein): decrease levels of α-synuclein | α-synuclein inclusions (human α-synuclein): fewer α-synuclein inclusions | AUC(0-t) ([1]; Brain): 44.50 ng·h/g | AUC(0-[…]) ([1]; Brain): 86.86 ng·h/g | Cmax ([1]; mouse, Brain): 6.84 ng/g | Tmax ([1]; mouse, Brain): 1 h | half-life ([1]; mouse, Brain): 8.1 h | MRT ([1]; mouse, Brain): 11.4 h | Cmax ([1]; mouse, plasma, Blood): 40.4 ng/mL | Tmax ([1]; mouse, plasma, Blood): 1 h | half-life ([1]; mouse, plasma, Blood): 1.31 h | AUC(0-t) ([1]; mouse, plasma, Blood, read-out: AUC(0-t)): 130 ng·h/mL | AUC ([1]; mouse, plasma, Blood, read-out: AUC(0-[…])): 131 ng·h/mL | MRT ([1]; mouse, plasma, Blood): 1.76 h | LC3 mRNA (LC3 mRNA): works in this assay; also recorded: upregulated | LC3 mRNA (LC3 mRNA; listed as tipifarnib): increased | number of LC3-positive puncta [2]: distinct increase | number of LC3-positive puncta ([2]; listed as tipifarnib): increased | mRNA levels of a set of autophagy-related genes (incl. Atg1) [3]: unaffected | GGTase inhibitory activity (GGTase [4]): little to no GGTase inhibitory activity | selectivity for FTase than GGTase (FTase): over 5,000 times | inhibition of geranylgeranylation of lamin B peptide substrate by GGTase (GGTase [5]): 40%
